In US20180193453A1, “TREATMENT-RESISTANCE REDUCING AGENT FOR TREATMENT-RESISTANT CANCER” (NATIONAL UNIVERSITY CORPORATION HOKKAIDO UNIVERSITY, priority 2015, published 2018):

Legend:
[1] = system: A549-DR-IL-34-KO cells; assay: MTT cell viability assay with or without DOX; type: cell-based, human; conditions: DOX 1 μM, 72 hours, FIG. 7 upper
[2] = system: A549-DR-IL-34-KO tumor; assay: Tumor size in humanized NOG mice with DOX administration; type: in vivo; conditions: DOX 10 mg/kg/mouse intravenously, twice a week, 4 times, vs PBS, FIG. 8
[3] = system: A549-DR cells; assay: MTT cell viability assay with or without DOX; type: cell-based, human; conditions: DOX 1 μM, 72 hours, FIG. 7 upper
Description: Human lung adenocarcinoma cell line A549 was obtained from the American Type Cell Culture (ATCC, USA). Cell culture was carried out at 37° C. in an atmosphere of 5% CO2 using Dulbecco's Modified Eagle's Medium (DMEM) (SIGMA) supplemented with fetal bovine serum (at a final concentration of 10%), penicillin (at a final concentration of 100 U/mL) and streptomycin (at a final concentration of 100 μg/mL). A549 cells were cultured at 37° C. in an atmosphere of 5% CO2, in DMEM in which the DOX concentration was increased stepwise from 0.01 to 1 μM, and then cells acquiring DOX resistance were selected to generate a DOX-resistant A549 cell line (A549-DR). The resultant A549-DR cells maintained their drug resistance by exposure to 1 μM DOX.
A549-DS, A549-DR, and A549-DR-IL-34-KO cells were cultured in DMEM medium with or without DOX (at a final concentration of 1 μM). After 72 hours of culturing, an MTT assay was performed (using a cell proliferation determination kit, available from Roche Applied) to determine the viability of cells. Similarly, A549-DR cells were cultured in a medium with or without DOX in which an anti-IL-34 neutralizing antibody was added at a final concentration of 0.01 to 10 μg/mL, and the viability of cells was determined in a similar way.

[4] = system: A549-DR tumor; assay: Tumor size in humanized NOG mice with DOX administration; type: in vivo; conditions: DOX 10 mg/kg/mouse intravenously, twice a week, 4 times, vs PBS, FIG. 8

With `COc1cccc2c1C(=O)c1c(O)c3c(c(O)c1C2=O)C[C@@](O)(C(=O)CO)C[C@@H]3O[C@H]1C[C@H](N)[C@H](O)[C@H](C)O1` [DOX, doxorubicin] the “viability of cells (sensitivity to DOX)” value [1] was “restored the sensitivity to DOX”, the tumor size [2] was “significantly decreased” and the viability of cells [3] was “did not have a decreased viability”. For the same compound, the tumor size [4] was “did not change greatly”.
